The values that follow come from PMC6008489 (Bioorganic & Medicinal Chemistry, 2018).

One data set deals with Aurora B (Homo sapiens, UniProt Q96GD4). It is filed as biochemical. Conditions: for Ki: calculated from mean IC50 using the Cheng-Prusoff equation, read-out: AurB Ki; for AurB ligand efficiency (LE): from Ki.
For data set [1], the target named is T1, MPS1 (Homo sapiens, UniProt P33981).
T1 sequence (P33981 1-857): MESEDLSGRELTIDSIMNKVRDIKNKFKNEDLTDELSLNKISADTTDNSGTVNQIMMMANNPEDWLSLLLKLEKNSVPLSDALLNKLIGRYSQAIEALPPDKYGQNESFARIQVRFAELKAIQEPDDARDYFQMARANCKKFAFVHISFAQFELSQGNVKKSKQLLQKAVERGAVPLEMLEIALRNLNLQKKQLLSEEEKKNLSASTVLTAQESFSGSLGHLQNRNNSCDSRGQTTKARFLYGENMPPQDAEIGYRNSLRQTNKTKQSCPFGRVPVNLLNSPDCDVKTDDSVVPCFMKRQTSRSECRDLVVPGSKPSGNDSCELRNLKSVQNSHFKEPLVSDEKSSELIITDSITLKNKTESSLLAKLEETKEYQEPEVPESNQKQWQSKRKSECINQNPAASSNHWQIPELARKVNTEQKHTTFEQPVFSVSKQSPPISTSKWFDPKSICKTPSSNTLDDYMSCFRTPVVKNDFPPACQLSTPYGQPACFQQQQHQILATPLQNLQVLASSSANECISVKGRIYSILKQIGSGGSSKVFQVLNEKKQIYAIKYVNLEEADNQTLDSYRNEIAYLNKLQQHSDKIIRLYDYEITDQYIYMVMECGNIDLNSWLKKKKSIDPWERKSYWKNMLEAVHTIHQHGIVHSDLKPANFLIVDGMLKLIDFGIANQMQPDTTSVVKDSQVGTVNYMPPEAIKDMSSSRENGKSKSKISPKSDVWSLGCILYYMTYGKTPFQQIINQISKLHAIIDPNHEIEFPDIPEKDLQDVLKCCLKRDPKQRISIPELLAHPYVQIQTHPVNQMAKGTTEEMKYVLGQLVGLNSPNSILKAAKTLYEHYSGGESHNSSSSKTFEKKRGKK
In kind it is biochemical. Conditions: for Ki: calculated from mean IC50 using the Cheng-Prusoff equation; for MPS1 ligand efficiency (LE): from Ki.
Procedure: (§1) IC50 values were obtained for an expanded version of the fragment library using the previously described mobility shift assay.[44] Subsequently, Ki values were estimated from IC50 values to allow better comparison of the activity against targets which were measured at different substrate concentrations (Supplementary data Table 1).
(§2) IC50 values for MPS1, Aurora A and Aurora B inhibition were determined as previously described,[44] and Ki values were estimated from the mean IC50 values using the Cheng-Prusoff equation.[48]
(§3) Kinase [ATP] (M) [Enzyme] (nM) [Peptide Substrate] (M) MgCl2 (mM)
(§4) For all compounds, IC50 values for MPS1, Aurora A, and Aurora B were determined
(§5) using MPS1 and Aurora A/B mobility shift assays as described previously.1 IC50
(§6) values were calculated from a four-parameter logistic fit of percentage inhibition
(§7) versus concentration (at 8 compound concentrations) using GraphPad Prism 5
(§8) (GraphPad Software, Inc., CA, USA). Mean IC50 values were determined from two
(§9) independent measurements each carried out in duplicate. Ki values were estimated
(§10) from the mean IC50 values using the Cheng-Prusoff equation.

The target in a further data set is T2, Aurora A (Homo sapiens, UniProt O14965).
T2 sequence (O14965 1-403): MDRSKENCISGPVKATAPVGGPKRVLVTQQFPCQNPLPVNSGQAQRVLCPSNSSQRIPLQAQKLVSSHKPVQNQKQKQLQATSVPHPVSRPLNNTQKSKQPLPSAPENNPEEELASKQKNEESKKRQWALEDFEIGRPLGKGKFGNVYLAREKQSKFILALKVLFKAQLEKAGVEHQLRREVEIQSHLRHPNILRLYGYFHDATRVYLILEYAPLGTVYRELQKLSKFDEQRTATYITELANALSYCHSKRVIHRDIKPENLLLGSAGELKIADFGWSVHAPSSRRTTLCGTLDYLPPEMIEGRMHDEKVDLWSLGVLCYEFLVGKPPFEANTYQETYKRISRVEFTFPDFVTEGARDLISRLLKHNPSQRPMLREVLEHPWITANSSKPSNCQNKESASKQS
It is filed as biochemical. Conditions: for Ki: calculated from mean IC50 using the Cheng-Prusoff equation, read-out: AurA Ki; for AurA ligand efficiency (LE): from Ki.

The next data set addresses T3, INSR (Homo sapiens, UniProt P06213).
T3 construct: purchased Perkin Elmer (ProfilerPro assay kit 1)
The experiment in a line: 26-kinase panel mobility shift assay, single concentration. It is filed as biochemical. Particulars: read-out: % Inhibition INSR.

Another data set has as its target T4, SRC (Homo sapiens, UniProt P12931).
T4 construct: purchased Perkin Elmer (ProfilerPro assay kit 1)
Described as above. It is filed as biochemical. Conditions: read-out: % Inhibition SRC.

The target of data set [2] is T1, MPS1. The data set is described as follows: biochemical. Particulars: read-out: % Inhibition MPS1.
Procedure: (§11) In order to test the biochemical activity of our fragment library, a panel of 26 structurally diverse protein kinases was used.
(§12) Screening of 26 kinases using a mobility shift assay
(§13) A mobility shift assay to determine kinase inhibition was carried out using a
(§14) modified version of the ProfilerPro assay kit 1 (Perkin Elmer, Coventry, UK)
(§15) including MPS1 and Aurora B. Each kit contained an enzyme plate, a substrate
(§16) plate, reconstitution buffer, 1 M DTT, protease inhibitor cocktail and termination
(§17) buffer. Test compounds were added as a solution in DMSO.
(§18) peptide phosphorylation assay was carried out as per the manufacturer’s
(§19) instructions. The electrophoretic separation and analysis of the phosphorylated
(§20) and non-phosphorylated peptides was carried out on a 4-sipper chip using a
(§21) LabChip EZReader II (Perkin Elmer). Results were expressed as % inhibition of
(§22) peptide phosphorylation relative to control wells for 0 % (no test compound) and
(§23) 100 % (no ATP) inhibition. The percentage inhibition was calculated using the
(§24) % Inhibition = [1 - (% Conversion Sample / % Conversion 0% Inhibition Control)] x 100
The next data set deals with T5, AKT2 (Homo sapiens, UniProt P31751).
T5 construct: purchased Perkin Elmer ProfilerPro assay kit 1
The experiment in a line: 26-kinase panel mobility shift assay, single concentration. In kind it is biochemical. Particulars: read-out: % Inhibition AKT2.

Structures can show the parent of a compound that is named as a salt.
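For AurB Ki in this document: aurora B inhibition measured in a mobility shift assay, underlying mean IC50 taken from two independent duplicate runs at 8 compound concentrations.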
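For AurB ligand efficiency (LE) in this document: aurora B inhibition measured in a mobility shift assay, underlying mean IC50 taken from two independent duplicate runs at 8 compound concentrations.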

Sequence of Aurora B (Q96GD4 whole entry): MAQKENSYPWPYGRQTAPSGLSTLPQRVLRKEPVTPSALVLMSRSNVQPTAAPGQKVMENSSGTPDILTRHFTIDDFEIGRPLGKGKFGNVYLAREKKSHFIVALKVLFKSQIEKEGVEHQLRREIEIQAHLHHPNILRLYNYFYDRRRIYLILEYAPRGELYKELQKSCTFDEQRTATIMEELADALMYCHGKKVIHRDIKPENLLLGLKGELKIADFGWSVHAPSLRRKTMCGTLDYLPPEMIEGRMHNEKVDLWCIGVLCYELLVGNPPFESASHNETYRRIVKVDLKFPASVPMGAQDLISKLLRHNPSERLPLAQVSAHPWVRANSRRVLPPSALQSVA
T5 sequence (P31751 whole entry): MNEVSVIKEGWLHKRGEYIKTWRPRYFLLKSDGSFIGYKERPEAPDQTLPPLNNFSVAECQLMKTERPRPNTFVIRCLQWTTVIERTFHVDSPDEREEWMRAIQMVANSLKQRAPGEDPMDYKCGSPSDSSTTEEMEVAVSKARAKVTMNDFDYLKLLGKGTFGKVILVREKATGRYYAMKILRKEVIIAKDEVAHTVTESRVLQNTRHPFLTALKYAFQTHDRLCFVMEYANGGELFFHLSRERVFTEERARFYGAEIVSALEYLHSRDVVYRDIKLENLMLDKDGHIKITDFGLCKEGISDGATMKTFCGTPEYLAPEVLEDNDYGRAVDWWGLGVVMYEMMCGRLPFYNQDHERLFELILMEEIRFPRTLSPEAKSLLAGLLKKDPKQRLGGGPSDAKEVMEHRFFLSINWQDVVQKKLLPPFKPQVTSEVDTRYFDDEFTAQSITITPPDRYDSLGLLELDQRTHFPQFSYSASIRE
T4 sequence (P12931 whole entry): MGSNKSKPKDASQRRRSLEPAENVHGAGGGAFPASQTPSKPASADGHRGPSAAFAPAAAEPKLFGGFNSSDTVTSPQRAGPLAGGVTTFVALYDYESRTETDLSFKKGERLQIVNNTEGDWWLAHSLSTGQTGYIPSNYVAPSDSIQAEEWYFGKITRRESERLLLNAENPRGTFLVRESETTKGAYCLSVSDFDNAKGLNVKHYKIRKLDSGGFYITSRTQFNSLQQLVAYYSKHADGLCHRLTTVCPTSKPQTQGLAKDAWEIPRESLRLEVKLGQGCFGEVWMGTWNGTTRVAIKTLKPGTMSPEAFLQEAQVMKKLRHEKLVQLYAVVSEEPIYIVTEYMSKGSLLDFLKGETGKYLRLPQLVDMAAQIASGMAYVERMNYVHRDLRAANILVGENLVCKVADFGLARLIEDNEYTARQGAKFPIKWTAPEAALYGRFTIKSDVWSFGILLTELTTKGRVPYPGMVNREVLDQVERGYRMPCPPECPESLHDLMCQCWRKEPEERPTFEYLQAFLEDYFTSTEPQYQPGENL
T3 sequence (P06213 28-1382): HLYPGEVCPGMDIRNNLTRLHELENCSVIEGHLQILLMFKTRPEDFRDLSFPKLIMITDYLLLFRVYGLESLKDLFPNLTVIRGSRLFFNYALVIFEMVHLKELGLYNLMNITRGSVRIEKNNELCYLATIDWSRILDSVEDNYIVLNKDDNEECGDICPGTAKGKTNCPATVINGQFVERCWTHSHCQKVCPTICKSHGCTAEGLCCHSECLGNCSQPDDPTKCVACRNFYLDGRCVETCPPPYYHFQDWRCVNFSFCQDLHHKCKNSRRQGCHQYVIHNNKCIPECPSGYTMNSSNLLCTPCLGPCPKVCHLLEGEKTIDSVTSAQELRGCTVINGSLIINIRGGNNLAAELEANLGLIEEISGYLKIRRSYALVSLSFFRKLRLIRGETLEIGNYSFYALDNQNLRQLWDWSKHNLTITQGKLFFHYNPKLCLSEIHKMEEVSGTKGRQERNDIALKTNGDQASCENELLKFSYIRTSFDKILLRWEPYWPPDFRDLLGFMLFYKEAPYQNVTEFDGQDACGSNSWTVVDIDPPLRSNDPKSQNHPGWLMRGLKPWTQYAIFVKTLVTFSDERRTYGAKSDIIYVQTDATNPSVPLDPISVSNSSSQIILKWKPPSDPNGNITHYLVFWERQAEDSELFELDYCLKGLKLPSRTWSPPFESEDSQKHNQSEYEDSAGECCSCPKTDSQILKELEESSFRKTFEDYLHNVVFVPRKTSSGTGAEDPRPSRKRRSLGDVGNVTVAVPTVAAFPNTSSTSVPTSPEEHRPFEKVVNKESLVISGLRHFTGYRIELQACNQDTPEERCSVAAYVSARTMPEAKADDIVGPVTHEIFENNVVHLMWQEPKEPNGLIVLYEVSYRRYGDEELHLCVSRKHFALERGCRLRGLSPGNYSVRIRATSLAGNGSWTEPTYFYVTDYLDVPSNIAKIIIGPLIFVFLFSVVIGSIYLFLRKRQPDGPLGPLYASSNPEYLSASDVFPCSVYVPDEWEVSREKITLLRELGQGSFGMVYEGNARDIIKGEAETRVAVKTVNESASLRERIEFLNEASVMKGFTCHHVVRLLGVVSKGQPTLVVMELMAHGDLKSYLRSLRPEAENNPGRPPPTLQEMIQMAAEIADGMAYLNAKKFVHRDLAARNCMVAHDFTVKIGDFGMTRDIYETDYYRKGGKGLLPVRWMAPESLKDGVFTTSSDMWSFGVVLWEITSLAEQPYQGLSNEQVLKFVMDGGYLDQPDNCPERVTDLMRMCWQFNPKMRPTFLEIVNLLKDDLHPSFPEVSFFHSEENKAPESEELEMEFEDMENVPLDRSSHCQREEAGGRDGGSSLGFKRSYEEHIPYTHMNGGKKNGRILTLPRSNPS
Procedure for AKT2: as §11, §12, §13, §14, §15, §16, §17, §18, §19, §20, §21, §22, §23, §24
Procedure for Aurora A: as §1, §2, §3, §4, §5, §6, §7, §8, §9, §10
Procedure for Aurora B: as §1, §2, §3, §4, §5, §6, §7, §8, §9, §10
Procedure for INSR: as §11, §12, §13, §14, §15, §16, §17, §18, §19, §20, §21, §22, §23, §24
Procedure for SRC: as §11, §12, §13, §14, §15, §16, §17, §18, §19, §20, §21, §22, §23, §24

`Nc1cc(-c2cncnc2)c[nH]c1=O` (as salt: sodium) [Compound 10, 3-Amino-5-(pyrimidin-5-yl)pyridin-2(1H)-one] gave a melting point of 240 °C.
Turning to `Nc1cc(-c2ccccc2)cnc1O` [Compound 9, 3-Amino-5-phenyl-pyridin-2-one], at Aurora B, the Ki was 70.3 µM and the “AurB ligand efficiency (LE)” value was 0.40. On MPS1 [1], the Ki is 128 µM and the “MPS1 ligand efficiency (LE)” value was determined as 0.38. Further, on Aurora A, the Ki was 66.9 µM and the “AurA ligand efficiency (LE)” value amounted to 0.41.
As to `Nc1cc(-c2cncnc2)c[nH]c1=O` [Compound 10, 3-Amino-5-(pyrimidin-5-yl)pyridin-2(1H)-one], at Aurora B, the inhibitory constant (Ki) was 18.7 µM and the “AurB ligand efficiency (LE)” value came to 0.46. For the same compound, on MPS1 [1], the Ki is 269 µM and the “MPS1 ligand efficiency (LE)” value was 0.35. In addition, on Aurora A, the Ki was 89.6 µM and the “AurA ligand efficiency (LE)” value is recorded as 0.39.
Consider `Nc1cc(-c2cccnc2)c[nH]c1=O` [Compound 11], for which, on Aurora B, the Ki is 97.2 µM and the “AurB ligand efficiency (LE)” value was found to be 0.39. Also, on MPS1 [1], the Ki is 98.1 µM and the “MPS1 ligand efficiency (LE)” value was 0.39. Also, at Aurora A, the Ki is 125 µM and the “AurA ligand efficiency (LE)” value was 0.38.
Consider `Cc1[nH]c(=O)c(C#N)cc1-c1ccncc1` [Compound 13, Milrinone, reference compound], for which the Ki at Aurora B, at MPS1 [1] and on Aurora A was above 100 µM each time.
Turning to `Cc1[nH]c(=O)c(C(N)=O)cc1-c1ccncc1` [Compound 14], the Ki at Aurora B, at MPS1 [1] and on Aurora A was above 100 µM throughout.
Regarding `COc1cccc(C(=O)Nc2cc(-c3ccncc3)c[nH]c2=O)c1` [Compound 17, 3-Methoxy-N-(2-oxo-5-(pyridin-4-yl)-1,2-dihydropyridin-3-yl)benzamide], the melting point was determined as 287 °C. The inhibition at 100 µM at INSR is 21%. In addition, at MPS1 [1], the inhibitory constant (Ki) is 24.8 µM. Further, the inhibition at 100 µM at SRC is 59%. Also, the inhibition at 100 µM on MPS1 [2] amounted to 42%. In addition, the inhibition at 100 µM on AKT2 was found to be 50%.
Take `COc1cc(OC)cc(C(=O)Nc2cc(-c3ccncc3)c[nH]c2=O)c1` [Compound 18, 3,5-Dimethoxy-N-(2-oxo-5-(pyridin-4-yl)-1,2-dihydropyridin-3-yl)benzamide]: the values for the Ki at Aurora B, on MPS1 [1] and at Aurora A were 32.9 µM, 30.1 µM and above 100 µM, respectively.
In the case of `O=C(Nc1cc(-c2ccncc2)c[nH]c1=O)c1cccc(F)c1` [Compound 19, 3-Fluoro-N-(2-oxo-5-(pyridin-4-yl)-1,2-dihydropyridin-3-yl)benzamide], the melting point turned out to be 292 °C. Further, the Ki at Aurora B is above 100 µM. Further, the Ki on MPS1 [1] is above 100 µM. Moreover, on Aurora A, the Ki was above 100 µM.
In the case of `O=C(Nc1cc(-c2ccncc2)c[nH]c1=O)c1cc(F)cc(F)c1` [Compound 20], the melting point came to 293 °C.
`O=c1[nH]cc(-c2ccncc2)cc1NS(=O)(=O)c1ccccc1` [Compound 21] displayed a melting point of 289 °C. In addition, the Ki at Aurora B was above 100 µM. Also, at MPS1 [1], the Ki was above 100 µM. Further, at Aurora A, the Ki was above 100 µM.
As to `O=C(Nc1cc(-c2ccncc2)c[nH]c1=O)c1ccc(N2CCCCC2)cc1` [Compound 23], the melting point was 284 °C. For the same compound, at Aurora B, the Ki was 7.4 µM and the “AurB ligand efficiency (LE)” value was 0.25. In addition, on MPS1 [1], the Ki is 2.9 µM and the “MPS1 ligand efficiency (LE)” value stood at 0.27. Further, at Aurora A, the Ki was 2.6 µM and the “AurA ligand efficiency (LE)” value came out at 0.27.
